# Experimental data reported in US5922871A, “Terephthalamide derivatives” (Dongwha Pharmaceutical Ind. Co., Ltd., priority 1997, dated 1999).
# Key:
# [1] = biological target: T1, HIV reverse transcriptase (HIV-RT) (Human immunodeficiency virus type 1 group M subtype B, UniProt P04585); experiment: in vitro inhibition test against HIV reverse transcriptase; format: biochemical, HIV (AIDS virus); conditions: read-out: Inhibitory effect of HIV-RT; for inhibition at 0.1 µg/mL: 0.1 μg/ml; for inhibition at 1 µg/mL: 1 μg/ml
# T1 construct: purchased Boehringer Mannheim
# Procedure: Experiment 3: The in vitro inhibition test against HIV reverse transcriptase
# The inhibitory activity in vitro was measured using a non-radioactive reverse transcriptase assay Kit (Boehringer Mannheim).
# At first, 20 μl(40 ng) HIV-RT was added to the wells coated with streptavidin and with the addition of 20 μl, reaction mixture containing template/primer hybrid poly(A)/oligo(dT)15 and DIG-(digoxigenin)-dUTP, biotin-dUTP and TTP, 20 μl test compound was added and reacted at 37° C. for 1 hour. The control without test compound was used for the comparison of related activity. Since DNA containing nucleotide labeled with digoxigenin and biotine was prepared by the action of HIV-RT, it was combined with streptavidin coated at the bottom of the wells. After the reaction was completed, remaining impurities were removed by washing each well with 20 μl buffer solution (pH 7.0) for 30 seconds 5 times and with the addition of 200 μl anti-DIG-POD antibody, the mixture was reacted at 37° C. for 1 hour. For the removal of remaining impurities again, the reacting solution was washed with a buffer solution and with the addition of 200μl ABTS™ each, a substrate of POD(peroxidase), the solution was reacted at room temperature for 30 minutes. The absorbance was read by ELISA reader at 405 nm for the assay of reverse transcriptase activity and its inhibition activity.
# [2] = biological target: T2, HBV polymerase reverse transcriptase (HBV-RT) (Hepatitis B virus genotype D subtype ayw, UniProt P03156); experiment: inhibitory activity against HBV polymerase in vitro (reverse transcriptase activity); format: biochemical; conditions: read-out: Inhibitory effect of HBV-RT; for inhibition at 0.1 µg/mL: 0.1 μg/ml; for inhibition at 1 µg/mL: 1 μg/ml
# T2 construct: made in house; host or cells: E. coli
# T2 sequence (P03156 whole entry): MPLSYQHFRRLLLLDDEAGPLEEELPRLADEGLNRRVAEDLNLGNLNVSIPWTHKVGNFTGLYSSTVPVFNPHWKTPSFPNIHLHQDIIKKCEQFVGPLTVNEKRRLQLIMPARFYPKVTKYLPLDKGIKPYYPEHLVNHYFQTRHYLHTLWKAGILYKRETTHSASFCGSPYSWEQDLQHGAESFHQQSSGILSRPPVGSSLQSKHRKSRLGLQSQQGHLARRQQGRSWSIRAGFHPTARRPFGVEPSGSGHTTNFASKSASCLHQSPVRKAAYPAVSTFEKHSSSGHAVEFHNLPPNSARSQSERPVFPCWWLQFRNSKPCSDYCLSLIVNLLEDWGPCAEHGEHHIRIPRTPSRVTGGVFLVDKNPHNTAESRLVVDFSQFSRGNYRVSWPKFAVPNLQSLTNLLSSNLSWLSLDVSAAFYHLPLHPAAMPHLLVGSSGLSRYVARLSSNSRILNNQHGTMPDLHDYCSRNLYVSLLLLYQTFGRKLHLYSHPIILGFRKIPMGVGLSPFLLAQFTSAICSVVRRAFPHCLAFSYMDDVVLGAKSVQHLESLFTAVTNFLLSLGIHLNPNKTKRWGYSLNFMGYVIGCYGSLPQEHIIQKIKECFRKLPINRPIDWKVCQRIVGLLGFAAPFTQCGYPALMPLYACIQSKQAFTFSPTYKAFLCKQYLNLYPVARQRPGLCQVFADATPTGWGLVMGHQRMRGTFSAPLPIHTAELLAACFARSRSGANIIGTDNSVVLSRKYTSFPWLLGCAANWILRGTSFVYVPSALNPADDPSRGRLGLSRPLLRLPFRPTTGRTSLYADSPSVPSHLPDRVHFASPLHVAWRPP
# From the text: Experiment 1: The inhibitory activity against HBV polymerase in vitro.
# Recently, the inventors of the present invention have produced a recombinant HBV polymerase that is expressed from E.coli transformant, measured its enzyme activity and filed patent applications thereof [Korean Patent Application Nos. 94-3918, 96-33998 and 96-63255].
# The inventions have established a method of measuring the reverse transcriptase activity of HBV polymerase in vitro. The fundamental principle is the same as the ELISA method, and after reacting the substrate with biotin- and DIG-modified nucleotide, a method of recognizing the polymerized substrate as anti-DIG antibody with peroxidase was used. […] and 20 μ of test compound were mixed and reacted at 14~30° C. for 18~24 hours. Then, the inhibitory effect of test compound against reverse trascriptase activity in the HBV polymerase was examined, compared with the results of control tests without the test compound.
SMILES,inhibition at 0.1 µg/mL [1] [%],inhibition at 1 µg/mL [1] [%],inhibition at 0.1 µg/mL [2] [%],inhibition at 1 µg/mL [2] [%]
"CC(C)Nc1cccnc1N1CCN(C(=O)c2ccc(C(=O)N3CCSCC3)cc2)CC1 [Compound No. 77, 4-[1-[3-(Isopropylamino)-2-pyridyl]piperazin-4-yl-carbonyl]-1-(thiomorpholin-4-yl-carbonyl)benzene]",28,40,,
"CC(C)Nc1cccnc1N1CCN(C(=O)c2ccc(C(=O)NCCCN3CCOCC3)cc2)CC1 [Compound No. 80, 4-[1-[3-(Isopropylamino)-2-pyridyl]piperazin-4-yl-carbonyl]-1-[N-[3-(morpholin-4-yl)propyl]carbamoyl]benzene]",43,56,40,66
"CC(C)Nc1cccnc1N1CCN(C(=O)c2ccc(C(=O)N[C@@H](C)CO)cc2)CC1 [Compound No. 35, 1-[N-[(1S)-2-Hydroxy-1-methylethyl]carbamoyl]-4-[1-[3-(isopropylamino)-2-pyridyl]piperazin-4-yl-carbonyl]benzene]",,,62,82
"CC(C)Nc1cccnc1N1CCN(C(=O)c2ccc(C(=O)NC[C@H](C)O)cc2)CC1 [Compound No. 56, 1-[N-[(2S)-2-Hydroxypropyl]carbamoyl]-4-[1-[3-(isopropylamino)-2-pyridyl]piperazin-4-yl-carbonyl]benzene]",,,58,76
"COCCN(CCOC)C(=O)c1ccc(C(=O)N2CCN(c3ncccc3NC(C)C)CC2)cc1 [Compound No. 62, 1-[N,N-Bis(2-methoxyethyl)carbamoyl]-4-[1-[3-(isopropylamino)-2-pyridyl]piperazin-4-yl-carbonyl]benzene]",41,58,53,60
"CC(C)Nc1cccnc1N1CCN(C(=O)c2ccc(C(=O)N3CCN(C)CC3)cc2)CC1 [Compound No. 20, 1-[4-[1-[3-(Isopropylamino)-2-pyridyl]piperazin-4-yl-carbonyl]benzoyl]-4-methylpiperazine]",,,43,58
"CC(C)Nc1cccnc1N1CCN(C(=O)c2ccc(C(=O)NC(C)(C)CO)cc2)CC1 [Compound No. 34, 1-[N-(1,1-Dimethyl-2-hydroxyethyl)carbamoyl]-4-[1-[3-(isopropylamino)-2-pyridyl]piperazin-4-yl-carbonyl]benzene]",43,51,41,53
"CC(O)CN(CC(C)O)C(=O)c1ccc(C(=O)N2CCN(c3ncccc3NC(C)C)CC2)cc1 (centres unmarked) [Compound No. 16, 1-[N,N-Bis(2-hydroxypropyl)carbamoyl]-4-[1-[3-(isopropylamino)-2-pyridyl]piperazin-4-yl-carbonyl]benzene]",52,65,45,78
"CCN(CC)C(=O)c1ccc(C(=O)N2CCN(c3ncccc3NC(C)C)CC2)cc1 [Compound No. 13, 1-[N,N-Diethylcarbamoyl]-4-[1-[3-(isopropylamino)-2-pyridyl]piperazin-4-yl-carbonyl]benzene]",,,55,70
"CC(C)Nc1cccnc1N1CCN(C(=O)c2ccc(C(=O)NCCOCCO)cc2)CC1 [Compound No. 17, 1-[N-[2-(2-Hydroxyethoxy)ethyl]carbamoyl]-4-[1-[3-(isopropylamino)-2-pyridyl]piperazin-4-yl-carbonyl]benzene]",35,53,,
"CC(C)Nc1cccnc1N1CCN(C(=O)c2ccc(C(=O)N3CCOCC3)cc2)CC1 [Compound No. 76, 4-[1-[3-(Isopropylamino)-2-pyridyl]piperazin-4-yl-carbonyl]-1-(morpholin-4-yl-carbonyl)benzene]",43,52,49,79
"COCCNC(=O)c1ccc(C(=O)N2CCN(c3ncccc3NC(C)C)CC2)cc1 [Compound No. 61, 4-[1-[3-(Isopropylamino)-2-pyridyl]piperazin-4-yl-carbonyl]-1-[N-(2-methoxyethyl)carbamoyl]benzene]",32,65,33,81
"CC(C)Nc1cccnc1N1CCN(C(=O)c2ccc(C(=O)N(CCO)c3ccccc3)cc2)CC1 [Compound No. 11, 1-[N-(2-Hydroxyethyl)-N-phenylcarbamoyl]-4-[1-[3-(isopropylamino)-2-pyridyl]piperazin-4-yl-carbonyl]benzene]",43,50,20,76
"CCN1CCN(C(=O)c2ccc(C(=O)N3CCN(c4ncccc4NC(C)C)CC3)cc2)CC1 [Compound No. 21, 4-Ethyl-1-[4-[1-[3-(isopropylamino)-2-pyridyl]piperazin-4-yl-arbonyl]benzoyl]piperazine]",20,64,,
"CCCN(CCO)C(=O)c1ccc(C(=O)N2CCN(c3ncccc3NC(C)C)CC2)cc1 [Compound No. 7, 1-[N-(2-Hydroxyethyl)-N-propylcarbamoyl]-4-[1-[3-(isopropylamino)-2-pyridyl]piperazin-4-yl-carbonyl]benzene]",21,60,,
"CC(C)Nc1cccnc1N1CCN(C(=O)c2ccc(C(=O)NCC3CCCO3)cc2)CC1 (centres unmarked) [Compound No. 72, 4-[1-[3-(Isopropylamino)-2-pyridyl]piperazin-4-yl-carbonyl]-1-[N-[(tetrahydrofuran-2-yl)methyl]carbamoyl]benzene]",,,51,63
"CC(C)Nc1cccnc1N1CCN(C(=O)c2ccc(C(=O)N[C@H](CO)CC3CCCCC3)cc2)CC1 [Compound No. 47, 1-[N-[(1S)-1-(Cyclohexylmethyl)-2-hydroxyethyl]carbamoyl]-4-[1-[3-(isopropylamino)-2-pyridyl]piperazin-4-yl-carbonyl]benzene]",43,54,,
"CC(C)Nc1cccnc1N1CCN(C(=O)c2ccc(C(=O)N(C(C)C)C(C)C)cc2)CC1 [Compound No. 14, 1-[N,N-Bis(1-methylethyl)carbamoyl]-4-[1-[3-(isopropylamino)-2-pyridyl]piperazin-4-yl-carbonyl]benzene]",52,59,,
"CC(C)Nc1cccnc1N1CCN(C(=O)c2ccc(C(=O)NCCN3CCCCC3)cc2)CC1 [Compound No. 81, 4-[1-[3-(Isopropylamino)-2-pyridyl]piperazin-4-yl-carbonyl]-1-[N-[2-(piperidin-1-yl)ethyl]carbamoyl]benzene]",32,60,,
"CCNc1cccnc1N1CCN(C(=O)c2ccc(C(=O)N3CCN(CCO)CC3)cc2)CC1 [Compound No. 33, 1-[4-[1-[3-(Ethylamino)-2-pyridyl]piperazin-4-yl-carbonyl]benzoyl]-4-(2-hydroxyethyl)piperazine]",,,37,69
"CCNc1cccnc1N1CCN(C(=O)c2ccc(C(=O)N(CC)CCO)cc2)CC1 [Compound No. 18, 1-[N-Ethyl-N-(2-hydroxyethyl)carbamoyl]-4-[1-[3-(ethylamino)-2-pyridyl]piperazin-4-yl-carbonyl]benzene]",,,28,63
